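How tested: cells in 96-well plates exposed to compound for 48 hours at five concentrations. GI50 = concentration required for 50% inhibition of growth. TGI: concentration producing complete growth inhibition.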 Where a SMILES comes first, the peptide text is derived from it.
How the values were obtained:
Experiment in all cases: inhibition of tumour cell growth, NCI panel, 48 h
PC-3 prostate = system: PC-3 prostate
ACHN renal = system: ACHN renal
SF-295 CNS = system: SF-295 CNS
IGROV1 ovarian = system: IGROV1 ovarian
NCI-H460 lung = system: NCI-H460 lung
SF-268 CNS = system: SF-268 CNS
CCRF-CEM leukemia = system: CCRF-CEM leukemia
SW-620 colon = system: SW-620 colon
SK-MEL-28 melanoma = system: SK-MEL-28 melanoma
MCF7 breast = system: MCF7 breast

COC1=CC(c2ccc[nH]2)=N/C1=C\c1[nH]c(C)c(CC(=O)NCc2ccccc2)c1C
GI50 (PC-3 prostate): 1.1 µM | TGI (PC-3 prostate): 2.6 µM | GI50 (ACHN renal): 1.75 µM | TGI (ACHN renal): 3.28 µM | GI50 (SF-295 CNS): 1.47 µM | TGI (SF-295 CNS): 2.89 µM

O=C([O-])c1ccccc1Nc1ccccc1C(=O)[O-].[OH3+].[Zn+2]
TGI (ACHN renal): > 100 µM | TGI (IGROV1 ovarian): 18.8 µM | TGI (NCI-H460 lung): > 100 µM | TGI (SF-268 CNS): 40.2 µM | TGI (CCRF-CEM leukemia): 61.6 µM | TGI (SW-620 colon): > 54.8 µM | TGI (SF-295 CNS): 32.2 µM | TGI (SK-MEL-28 melanoma): 40.7 µM

O=C(N/N=C\c1ccc(N(CCCl)CCCl)cc1)c1cccnc1
GI50 (PC-3 prostate): 65.4 µM | TGI (PC-3 prostate): > 100 µM | GI50 (ACHN renal): 31.6 µM | TGI (ACHN renal): > 100 µM | GI50 (IGROV1 ovarian): > 100 µM | TGI (IGROV1 ovarian): > 100 µM | GI50 (NCI-H460 lung): 3.83 µM | TGI (NCI-H460 lung): > 100 µM | GI50 (SF-268 CNS): 27 µM | TGI (SF-268 CNS): > 100 µM | GI50 (CCRF-CEM leukemia): 5.91 µM | TGI (CCRF-CEM leukemia): > 100 µM | GI50 (SW-620 colon): > 100 µM | TGI (SW-620 colon): > 100 µM | GI50 (MCF7 breast): 20.9 µM | TGI (MCF7 breast): > 100 µM | GI50 (SF-295 CNS): 6.31 µM | TGI (SF-295 CNS): 73.2 µM | GI50 (SK-MEL-28 melanoma): > 100 µM | TGI (SK-MEL-28 melanoma): > 100 µM

COc1cc2c(c(OC)c1OC)-c1ccc(OC)c(=O)cc1C(NC(=O)CCCCCNc1ccc(N=[N+]=[N-])cc1[N+](=O)[O-])CC2 (stereo not given)
TGI (PC-3 prostate): < 0.01 µM | TGI (ACHN renal): 24.4 µM | TGI (IGROV1 ovarian): > 31.6 µM | TGI (NCI-H460 lung): < 0.0139 µM | TGI (SF-268 CNS): 10.3 µM | TGI (SW-620 colon): > 31.6 µM | TGI (MCF7 breast): > 21.6 µM | TGI (SF-295 CNS): 12.5 µM | TGI (SK-MEL-28 melanoma): 25 µM

COc1c(O)cc2c(c1O)C(=O)C(Cc1ccc(O)cc1)CO2 (stereo not given)
TGI (PC-3 prostate): > 100 µM | TGI (ACHN renal): > 100 µM | TGI (IGROV1 ovarian): > 100 µM | TGI (NCI-H460 lung): > 100 µM | TGI (SF-268 CNS): > 100 µM | TGI (SW-620 colon): > 100 µM | TGI (MCF7 breast): > 100 µM | TGI (SF-295 CNS): > 100 µM | TGI (SK-MEL-28 melanoma): > 100 µM

CC1=C/C(=N\NS(=O)(=O)c2ccc([N+](=O)[O-])cc2)CC(C)(C)C1
TGI (PC-3 prostate): > 100 µM | TGI (ACHN renal): > 100 µM | TGI (IGROV1 ovarian): > 100 µM | TGI (NCI-H460 lung): > 100 µM | TGI (SF-268 CNS): > 100 µM | TGI (CCRF-CEM leukemia): > 100 µM | TGI (SW-620 colon): > 100 µM | TGI (MCF7 breast): > 100 µM | TGI (SF-295 CNS): > 100 µM | TGI (SK-MEL-28 melanoma): > 100 µM

N=C1c2ccccc2C(=O)c2c(NCCNCCO)ccc(O)c21
TGI (ACHN renal): 57 µM | TGI (IGROV1 ovarian): 46.8 µM | TGI (NCI-H460 lung): 15.1 µM | TGI (SF-268 CNS): 14.2 µM | TGI (CCRF-CEM leukemia): 53.9 µM | TGI (SW-620 colon): 15.8 µM | TGI (SF-295 CNS): > 40.5 µM | TGI (SK-MEL-28 melanoma): 23.2 µM

CC(=O)NC(CS)C(=O)NC(CO)C(=O)NC(CO)C(=O)NC(Cc1c[nH]c2ccccc12)C(=O)N1CCCC1C(=O)NC(CO)C(=O)NC(Cc1c[nH]c2ccccc12)C(=O)NC(Cc1c[nH]cn1)C(=O)NC(CO)C(=O)NC(Cc1c[nH]c2ccccc12)C(=O)NCC(=O)NCC(=O)NC(C)C(=O)NC(CCC(N)=O)C(=O)NC(CCCCN)C(=O)NC(C)C(=O)NC(CCCNC(=N)N)C(=O)NC(CCCCN)C(N)=O (stereo not given) (Ac-CSSWPSWHSWGGAQKARK-NH2; configuration not given here)
TGI (PC-3 prostate): > 50 µM | TGI (ACHN renal): > 50 µM | TGI (IGROV1 ovarian): > 50 µM | TGI (NCI-H460 lung): 35.5 µM | TGI (SF-268 CNS): 49.6 µM | TGI (CCRF-CEM leukemia): > 50 µM | TGI (SW-620 colon): > 50 µM | TGI (MCF7 breast): > 50 µM | TGI (SF-295 CNS): > 50 µM | TGI (SK-MEL-28 melanoma): 20.9 µM

N#CC1(C#N)C(=O)c2ccncc2C1=O
TGI (PC-3 prostate): > 100 µM | TGI (ACHN renal): > 100 µM | TGI (IGROV1 ovarian): > 100 µM | TGI (NCI-H460 lung): > 100 µM | TGI (SF-268 CNS): > 100 µM | TGI (CCRF-CEM leukemia): > 100 µM | TGI (SW-620 colon): > 100 µM | TGI (MCF7 breast): > 100 µM | TGI (SF-295 CNS): > 100 µM | TGI (SK-MEL-28 melanoma): > 100 µM

O=S(=O)(O)c1ccc(N=Nc2ccc(N=Nc3c(O)ccc4ccc(S(=O)(=O)O)cc34)cc2)cc1
TGI (PC-3 prostate): > 100 µM | TGI (ACHN renal): > 100 µM | TGI (IGROV1 ovarian): > 100 µM | TGI (NCI-H460 lung): > 100 µM | TGI (SF-268 CNS): > 100 µM | TGI (CCRF-CEM leukemia): > 100 µM | TGI (SW-620 colon): > 100 µM | TGI (MCF7 breast): > 100 µM | TGI (SF-295 CNS): > 100 µM | TGI (SK-MEL-28 melanoma): > 100 µM

Reference: PubChem BioAssay (NCI)
